Test results taken from article PMC10177692, “Novel topoisomerase II/EGFR dual inhibitors: design, synthesis and docking studies of naphtho[2′,3′:4,5]thiazolo[3,2-a]pyrimidine hybrids as potential anticancer agents with apoptosis inducing activity” (Journal of Enzyme Inhibition and Medicinal Chemistry, 2023).
Read-outs that look alike come from different tables or passages of the source. One block for each compound: values may come before it.

Columns and labels:
A549 = assay: MTT anti-proliferative assay; assay type: cell-based, human; settings: for IC50: Homo sapiens, A549, MTT, 24 h, mean ± SE of three experiments, read-out: IC50 (µM) ± S.E. A549; for fold the activity of erlotinib: A549, ratio of IC50 values
Experimental: (§1) The culture media were supplemented with 10% heat inactivated foetal bovine serum (FBS, HyClone, Thermo Scientific) and antibiotics (100 U/ml penicillin and 100 µg/ml streptomycin, HyClone, Thermo Scientific). The cells were incubated in a humidified atmosphere containing 5% CO2 (Heracell VIOS CO2 incubator, Thermo Scientific) in air at 37 °C.
(§2) MTT reagent, at volume equal to 10% of the culture medium volume, was added to the cultured cells and to the blank wells. The culture plates were re-incubated for 2–4 h depending on cell type and density. After the incubation period, culture plates were restored from the incubator and the obtained formazan crystals were dissolved in acidified isopropanol with continuous shaking using plate shaker (MaxQ 2000, Thermo Fisher Scientific Inc., MI, USA) at room temperature. Absorbance was measured spectrophotometrically at wavelength 570 nm using a plate reader (Stat FaxR 4200, Awareness Technology, Inc., FL, USA). […] Three independent experiments were performed for each compound and Mean ± SE were calculated.

HCT-116 = assay: MTT anti-proliferative assay; assay type: cell-based, human; settings: Homo sapiens, HCT-116; MTT, 24 h, mean ± SE of three experiments; read-out: IC50 (µM) ± S.E. HCT-116
Experimental: as §1, §2

MCF-7 = assay: MTT anti-proliferative assay; assay type: cell-based, human; settings: for IC50: Homo sapiens, MCF7; for fold the activity of erlotinib: MCF-7, ratio of IC50 values
Experimental: as §1, §2

topoisomerase IIα = biological target: T1, topoisomerase IIα (Homo sapiens, UniProt P11388); assay: Topoisomerase IIα inhibitory activity (ELISA kit); assay type: cell-based; settings: MCF-7 cell line; for % inhibition of topoisomerase IIα activity: compounds at their IC50, compared to control
T1 construct: it decreases the concentration of topoisomerase iIα in MCF-7 cell line to 1.043 ± 0.10 ng/ml; endogenous in cells; host or cells: MCF-7
Experimental: Biotin-conjugated antibody was added to each well followed by incubation at 37 °C for 1 h, then the plates were aspirated. Avidin conjugated Horseradish Peroxidase (HRP avidin) solution was added to each well, incubated again at 37 °C for 1 h. TMB substrate was added to the wells and the plate was incubated at 37 °C for 30 min at dark place. The absorbance was read using spectrophotometer at a wavelength of 450 nm.

topoisomerase II = biological target: T2, topoisomerase II (Homo sapiens, UniProt P11388); assay: DNA topo II inhibition assay (kDNA, agarose gel); assay type: biochemical; settings: 10 µM, with topo II
T2 construct: purchased Topogen, USA
Experimental: Using the procedure outlined in topoisomerase II Drug Screening Kit (Topogen, USA), the effect of 6a, 6c and 6i on topoisomerase II inhibition and the effectiveness of catenated/decatenated kDNA formation were examined. The reaction mixture includes 10 mM MgCl2, 50 mM Tris-HCl, 0.5 mM dithiothreitol, […]/ml bovine serum albumin, 200–300 ng of kDNA and topoisomerase II. […] After the reaction samples were incubated for 30 min at 37 °C, the reaction was stopped by adding […] of a stop buffer containing 10% (w/v) SDS and […] of 0.5 mg/ml proteinase followed by incubating the mixture for 10 min at 37 °C. The reaction mixture was separated by 1% agarose gel and examined after being stained with ethidium bromide.

EGFR = biological target: T3, EGFR (Homo sapiens, UniProt P00533); assay: EGFR kinase assay kit; assay type: biochemical; settings: mean ± SE; read-out: EGFR inhibitory activity IC50
T3 construct: purchased BPS Bioscience, San Diego, CA, USA
Experimental: The kinase activity of EGFR was assessed for 6a, 6c and 6i hybrids using EGFR kinase assay kit (BPS Bioscience, San Diego, CA, USA) based on the manufacturer’s instructions. Three independent experiments were performed for each compound and Mean ± SE were calculated.

p53 = p53 level ELISA in MCF-7 cells; assay type: cell-based, human; settings: for p53 FLD: MCF-7, at IC50, fold of control cells; for p53 Conc.(pg/ml): MCF-7, at IC50, control 257 ± 19.1
Experimental: p53 level was determined in MCF-7 cell line using Human p53 ELISA Kit (Sigma Aldrich, St. Louis, MO, USA). The cells were lysed using cell extraction buffer. Cell lysate was diluted with standard diluent buffer, then added to p53 monoclonal antibody pre-coated 96-wells plate. The plate incubated for 2 h at room temperature. Anti-p53 detection antibody was added to the plate and re-incubated at room temperature for 1 h. The plate washed four times using wash buffer followed by addition of anti-rabbit IgG-Horseradish Peroxidase (HRP) working solution. The plate incubated at room temperature for 30 min. Chromogen TMB (tetramethylbenzidine) was added to induce colour reaction. The absorbance of the plate was read at 450 nm using microplate reader (Bio-Rad Laboratories, Hercules, CA, USA). Three independent experiments were performed for each compound and Mean ± SE were calculated.

Bax = Bax level ELISA in MCF-7 cells; assay type: cell-based, human; settings: for Bax Conc.(pg/ml): MCF-7, at IC50, 24 h, control 83.16 ± 6.2; for Bax FLD: MCF-7, at IC50, fold of control cells
Experimental: (§3) MCF-7 cells were cultured in DMEM supplied with 10% FBS and incubated in 5% CO2 in air at 37 °C. […] Cell lysate was diluted using standard diluent buffer over the range of assay. Bax and Bcl-2 content in the lysate was assessed using human Bax ELISA kit (DRG, USA) and Bcl-2 ELISA Kit (Zymed Laboratories, Invitrogen Immuno-detection, Canada), respectively, according to the manufacturer’s instructions for each kit. The results were expressed as Mean ± SE of three independent experiments.

Bcl-2 = Bcl-2 level ELISA in MCF-7 cells; assay type: cell-based, human; settings: for Bcl-2 Conc.(ng/ml): MCF-7, at IC50, 24 h, control 6.56 ± 0.22; for Bcl-2 FLD: MCF-7, at IC50, fold of control cells
Experimental: as §3

caspase-7 = assay: Caspase-7 ELISA in MCF-7 cells; assay type: cell-based, human; settings: for Caspase 7 FLD: MCF-7, at IC50, fold of control; for Caspase 7 Conc.(ng/ml): MCF-7, at IC50, control 0.45 ± 0.03
Experimental: (§4) The effect of 6a, 6c and 6i hybrids on caspase-7 and −9 levels in MCF-7 cell line was measured using Human Caspase-7 ELISA Kit (BioVision Inc., Milpitas, CA 95035 USA) and Human Caspase-9 ELISA Kit (EIA-4860, DRG, USA), respectively, and according to the manufacturer’s instructions. The results were expressed as Mean ± SE of three independent experiments.

caspase-9 = assay: Caspase-9 ELISA in MCF-7 cells; assay type: cell-based, human; settings: for Caspase 9 FLD: MCF-7, at IC50, fold of control; for Caspase 9 Conc.(pg/ml): MCF-7, at IC50, control 4.51 ± 0.29
Experimental: as §4

[1] = MTT, 24 h, mean ± SE of three experiments, read-out: IC50 (µM) ± S.E. MCF-7
[2] = MCF-7, concentration used for treatment, read-out: IC50 (Table 2)
[3] = MCF-7, concentration used for treatment, read-out: IC50 (Table 3)

T1 sequence (P11388 whole entry): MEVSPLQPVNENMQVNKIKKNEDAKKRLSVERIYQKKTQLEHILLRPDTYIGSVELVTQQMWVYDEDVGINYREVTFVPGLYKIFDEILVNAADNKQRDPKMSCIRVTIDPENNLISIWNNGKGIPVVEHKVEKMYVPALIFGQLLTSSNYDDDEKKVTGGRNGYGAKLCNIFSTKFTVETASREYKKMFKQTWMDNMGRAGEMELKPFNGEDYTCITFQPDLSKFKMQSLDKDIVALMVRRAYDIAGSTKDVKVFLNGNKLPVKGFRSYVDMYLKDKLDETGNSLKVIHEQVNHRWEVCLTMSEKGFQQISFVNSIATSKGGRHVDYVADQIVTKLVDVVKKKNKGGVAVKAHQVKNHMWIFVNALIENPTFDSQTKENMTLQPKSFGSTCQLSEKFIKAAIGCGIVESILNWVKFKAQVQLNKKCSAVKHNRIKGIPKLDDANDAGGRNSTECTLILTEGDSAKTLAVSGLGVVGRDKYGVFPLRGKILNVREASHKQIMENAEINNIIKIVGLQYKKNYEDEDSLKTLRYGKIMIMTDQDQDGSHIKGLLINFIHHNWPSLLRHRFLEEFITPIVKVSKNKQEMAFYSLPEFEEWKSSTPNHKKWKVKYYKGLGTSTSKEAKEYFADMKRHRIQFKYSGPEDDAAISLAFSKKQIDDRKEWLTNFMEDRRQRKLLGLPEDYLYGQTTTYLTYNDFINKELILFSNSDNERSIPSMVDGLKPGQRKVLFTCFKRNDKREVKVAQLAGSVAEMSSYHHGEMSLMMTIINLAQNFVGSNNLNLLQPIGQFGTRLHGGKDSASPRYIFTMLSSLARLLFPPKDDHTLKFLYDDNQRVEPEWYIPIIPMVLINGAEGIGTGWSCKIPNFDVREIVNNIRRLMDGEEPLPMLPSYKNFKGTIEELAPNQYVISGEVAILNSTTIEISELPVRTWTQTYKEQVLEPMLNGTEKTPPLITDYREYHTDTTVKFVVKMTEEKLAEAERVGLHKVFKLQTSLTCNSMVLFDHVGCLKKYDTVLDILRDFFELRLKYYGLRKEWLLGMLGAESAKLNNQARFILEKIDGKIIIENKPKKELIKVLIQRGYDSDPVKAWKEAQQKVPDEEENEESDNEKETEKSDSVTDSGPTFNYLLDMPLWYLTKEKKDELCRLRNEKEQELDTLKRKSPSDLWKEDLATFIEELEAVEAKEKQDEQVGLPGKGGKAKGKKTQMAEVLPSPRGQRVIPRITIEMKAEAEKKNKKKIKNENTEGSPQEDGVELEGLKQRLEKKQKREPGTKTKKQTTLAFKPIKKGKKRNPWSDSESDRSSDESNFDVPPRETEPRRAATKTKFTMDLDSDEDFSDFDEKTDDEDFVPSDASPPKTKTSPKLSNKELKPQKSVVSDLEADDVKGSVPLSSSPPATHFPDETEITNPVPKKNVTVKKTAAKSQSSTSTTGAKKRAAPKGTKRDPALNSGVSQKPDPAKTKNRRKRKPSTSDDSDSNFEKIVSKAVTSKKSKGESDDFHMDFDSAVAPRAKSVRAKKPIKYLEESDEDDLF
T3 sequence (P00533 25-1210): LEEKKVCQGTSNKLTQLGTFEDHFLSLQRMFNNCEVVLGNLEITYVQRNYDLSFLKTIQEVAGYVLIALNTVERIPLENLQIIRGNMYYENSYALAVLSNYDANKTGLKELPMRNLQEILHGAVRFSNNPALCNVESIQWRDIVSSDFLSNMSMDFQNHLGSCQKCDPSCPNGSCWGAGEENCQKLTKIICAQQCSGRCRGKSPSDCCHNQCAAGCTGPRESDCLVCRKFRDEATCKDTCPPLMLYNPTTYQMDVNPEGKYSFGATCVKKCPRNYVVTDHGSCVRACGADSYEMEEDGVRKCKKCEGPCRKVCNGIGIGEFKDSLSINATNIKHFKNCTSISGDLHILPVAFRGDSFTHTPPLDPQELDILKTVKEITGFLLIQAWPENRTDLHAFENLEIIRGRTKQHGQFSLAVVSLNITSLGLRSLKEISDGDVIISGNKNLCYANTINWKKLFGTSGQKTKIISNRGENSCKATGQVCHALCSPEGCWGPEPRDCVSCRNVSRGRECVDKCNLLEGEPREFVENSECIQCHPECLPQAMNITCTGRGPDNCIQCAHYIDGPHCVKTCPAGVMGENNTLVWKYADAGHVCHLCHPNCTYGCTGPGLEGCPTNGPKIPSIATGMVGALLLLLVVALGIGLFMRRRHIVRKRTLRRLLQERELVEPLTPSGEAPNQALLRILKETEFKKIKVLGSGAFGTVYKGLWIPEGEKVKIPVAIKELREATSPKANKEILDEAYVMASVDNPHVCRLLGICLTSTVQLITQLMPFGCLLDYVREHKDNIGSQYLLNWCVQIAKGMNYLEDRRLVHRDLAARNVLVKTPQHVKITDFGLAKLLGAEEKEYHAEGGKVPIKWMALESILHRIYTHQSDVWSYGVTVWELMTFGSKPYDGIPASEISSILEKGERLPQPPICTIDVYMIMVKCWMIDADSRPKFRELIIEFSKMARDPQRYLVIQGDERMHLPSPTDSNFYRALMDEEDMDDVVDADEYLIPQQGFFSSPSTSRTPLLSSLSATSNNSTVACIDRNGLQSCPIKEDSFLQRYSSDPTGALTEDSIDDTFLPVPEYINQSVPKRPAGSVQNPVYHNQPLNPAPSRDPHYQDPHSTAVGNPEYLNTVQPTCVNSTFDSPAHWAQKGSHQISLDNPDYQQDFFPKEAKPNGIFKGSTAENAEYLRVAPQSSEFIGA
T2 sequence (P11388 whole entry): as the sequence (P11388 whole entry) above

IC50 (A549): 21.2 ± 1.23 µM
IC50 (HCT-116): 56.2 ± 4.11 µM
IC50 (MCF-7; [1]): 37.9 ± 2.25 µM
Compound: CN(C)c1ccc(-c2nc3sc4c(n3c(=O)c2C#N)C(=O)c2ccccc2C4=O)cc1 [Compound 6h, 2–(4-(Dimethylamino)phenyl)-4,6,11-trioxo-6,11-dihydro-4H-naphtho-[’',’':4,5]thiazolo[3,2-a]pyrimidine-3-carbonitrile]

IC50 (A549): 42.2 ± 2.19 µM
IC50 (HCT-116): 9 ± 0.66 µM
IC50 (MCF-7; [1]): 13.8 ± 1.12 µM
Compound: N#Cc1c(-c2ccccc2)nc2sc3c(n2c1=O)C(=O)c1ccccc1C3=O [Compound 6g, 4,6,11-Trioxo-2-phenyl-6,11-dihydro-4H-naphtho[’',’':4,5]thiazolo[3,2-a]-pyrimidine-3-carbonitrile]

IC50 (A549): 3.65 ± 0.25 µM
IC50 (HCT-116): 3.66 ± 0.39 µM
IC50 (MCF-7; [2]): 4.42 µM
IC50 (MCF-7; [3]): 4.42 µM
IC50 (MCF-7; [1]): 4.42 ± 0.35 µM
% inhibition of topoisomerase IIα activity (topoisomerase IIα): 11.30%
IC50 (EGFR): 0.0447 ± 0.00082 µM
Compound: COc1ccc(-c2nc3sc4c(n3c(=O)c2C#N)C(=O)c2ccccc2C4=O)cc1OC [Compound 6c, 2–(3,4-Dimethoxyphenyl)-4,6,11-trioxo-6,11-dihydro-4H-naphtho[’',’':4,5]-thiazolo[3,2-a]pyrimidine-3-carbonitrile]
linear DNA formation from catenated kDNA (topoisomerase II): the production of linear DNA was not noticed
p53 FLD (p53): 2.6 fold
p53 Conc.(pg/ml) (p53): 678 ± 42.3 pg/mL
Bax Conc.(pg/ml) (Bax): 372.7 ± 9.4 pg/mL
Bax FLD (Bax): 4.48 fold
Bcl-2 Conc.(ng/ml) (Bcl-2): 2.17 ± 0.36 ng/mL
Bcl-2 FLD (Bcl-2): 0.33 fold
Caspase 7 FLD (caspase-7): 4.20 fold
Caspase 7 Conc.(ng/ml) (caspase-7): 1.89 ± 0.02 ng/mL
Caspase 9 FLD (caspase-9): 3.03 fold
Caspase 9 Conc.(pg/ml) (caspase-9): 13.68 ± 0.42 pg/mL

IC50 (A549): 5.72 ± 0.37 µM
IC50 (HCT-116): 9.81 ± 0.65 µM
IC50 (MCF-7; [1]): 5.14 ± 0.32 µM
Compound: N#Cc1c(-c2ccc(Cl)cc2)nc2sc3c(n2c1=O)C(=O)c1ccccc1C3=O [Compound 6e, 2–(4-Chlorophenyl)-4,6,11-trioxo-6,11-dihydro-4H-naphtho[’',’':4,5]thiazolo-[3,2-a]pyrimidine-3-carbonitrile]

The next lines start with the compound.

Compound: COc1cc(-c2nc3sc4c(n3c(=O)c2C#N)C(=O)c2ccccc2C4=O)cc(OC)c1OC [Compound 6f, 4,6,11-Trioxo-2–(3,4,5-trimethoxyphenyl)-6,11-dihydro-4H-naphtho[’',’':4,5]-thiazolo[3,2-a]pyrimidine-3-carbonitrile]
IC50 (A549): 38.3 ± 3.21 µM
IC50 (HCT-116): 26.8 ± 1.78 µM
IC50 (MCF-7; [1]): 29.1 ± 1.56 µM

Compound: N#Cc1c(-c2ccc(F)cc2)nc2sc3c(n2c1=O)C(=O)c1ccccc1C3=O [Compound 6b, 2–(4-Fluorophenyl)-4,6,11-trioxo-6,11-dihydro-4H-naphtho[’',’':4,5]thiazolo-[3,2-a]pyrimidine-3-carbonitrile]
fold the activity of erlotinib (A549): 1.23 fold
IC50 (A549): 4.2 ± 0.41 µM
IC50 (HCT-116): 11.5 ± 0.12 µM
IC50 (MCF-7; [1]): 4.78 ± 0.36 µM
fold the activity of erlotinib (MCF-7): 1.52 fold

Compound: N#Cc1c(-c2ccc(Br)cc2)nc2sc3c(n2c1=O)C(=O)c1ccccc1C3=O [Compound 6d, 2–(4-Bromophenyl)-4,6,11-trioxo-6,11-dihydro-4H-naphtho[’',’':4,5]thiazolo-[3,2-a]pyrimidine-3-carbonitrile]
fold the activity of erlotinib (A549): 1.60 fold
IC50 (A549): 3.25 ± 0.31 µM
IC50 (HCT-116): 11.77 ± 0.11 µM
IC50 (MCF-7; [1]): 5.66 ± 0.29 µM
fold the activity of erlotinib (MCF-7): 1.28 fold

Compound: C#Cc1cccc(Nc2ncnc3cc(OCCOC)c(OCCOC)cc23)c1 [Erlotinib, erlotinib, reference compound]
IC50 (A549): 5.19 ± 0.36 µM
IC50 (HCT-116): 8.64 ± 0.18 µM
IC50 (MCF-7; [1]): 7.26 ± 0.2 µM

Compound: COc1cccc2c1C(=O)c1c(O)c3c(c(O)c1C2=O)C[C@@](O)(C(=O)CO)C[C@@H]3O[C@H]1C[C@H](N)[C@H](O)[C@H](C)O1 [Dox, Doxorubicin, reference compound]
IC50 (A549): 4.95 ± 0.29 µM
IC50 (HCT-116): 6.78 ± 0.44 µM
IC50 (MCF-7; [2]): 5.62 µM
IC50 (MCF-7; [3]): 5.62 µM
IC50 (MCF-7; [1]): 5.62 ± 0.31 µM
% inhibition of topoisomerase IIα activity (topoisomerase IIα): 65.92%
concentration of topoisomerase IIα (topoisomerase IIα; compounds at their IC50, control 3.663 ± 0.09 ng/ml): 1.248 ± 0.09 ng/mL
p53 FLD (p53): 4 fold
p53 Conc.(pg/ml) (p53): 1051 ± 22.6 pg/mL
Bax Conc.(pg/ml) (Bax): 511.2 ± 6.5 pg/mL
Bax FLD (Bax): 6.14 fold
Bcl-2 Conc.(ng/ml) (Bcl-2): 1.66 ± 0.03 ng/mL
Bcl-2 FLD (Bcl-2): 0.25 fold
Caspase 7 FLD (caspase-7): 23.2 fold
Caspase 7 Conc.(ng/ml) (caspase-7): 10.44 ± 0.92 ng/mL
Caspase 9 FLD (caspase-9): 6.53 fold
Caspase 9 Conc.(pg/ml) (caspase-9): 29.48 ± 0.25 pg/mL
